Test results: US11926595B1, “2-(2-ethoxyethoxy)-6-(4-hydroxyphenyl)-4-(4-methylphenyl)nicotinonitrile as an antimicrobial compound” (KING FAISAL UNIVERSITY, priority 2023, dated 2024)

Key:
[1] = tested on: Staphylococcus aureus; experiment: Antimicrobial screening by agar dilution, Staphylococcus aureus; assay type: cell-based; conditions: after 10, 20, 40 and 60 minutes at all dilutions 1:100, 1:200, 1:400, 1:800
Procedure: (§1) The antibacterial properties of the synthesized compound 2-(2-ethoxyethoxy)-6-(4-hydroxyphenyl)-4-(4-methylphenyl)nicotinonitrile were studied by the method of agar dilution. Test solutions of each compound was prepared in concentration of 1% using dimethylformamide as a solvent then they are diluted in physiological solution to obtain the final experimental dilutions 1: 100, 1:200, 1:400, 1:800. The effect of these substances are compared with furacillin in a controllable study. The testing microbes used were gram positive bacteria Staphylococcus aureus, gram negative bacteria Pseudomonas aeruginosa and Escherichia coli and Candida albicans fungus. The experiments used for this survey were meat-pentonlu agar (EPA) for cultivation of bacteria and Saburo environment for the fungus. Each experiment used 1 mL of test solution on each plate […]. Two drops of emulsified with microbes feel were added. All experimental samples were taken from the agar after 10, 20, 40, 60 minutes in the environment on the basis of Patrk planted. The bacteria were cultivated at a temperature of 37° C. for 1 day and the mushroom was kept in a thermostat for 2 hours at a temperature of 28° C. Then results were checked.

[2] = tested on: Escherichia coli; experiment: Antimicrobial screening by agar dilution, Escherichia coli; assay type: cell-based; conditions: after 10, 20, 40 and 60 minutes at all dilutions 1:100, 1:200, 1:400, 1:800
Procedure: as §1

[3] = tested on: Pseudomonas aeruginosa; experiment: Antimicrobial screening by agar dilution, Pseudomonas aeruginosa; assay type: cell-based; conditions: after 10, 20, 40 and 60 minutes at all dilutions 1:100, 1:200, 1:400, 1:800
Procedure: as §1

[4] = tested on: Candida albicans; experiment: Antimicrobial screening by agar dilution, Candida albicans; assay type: cell-based; conditions: after 10, 20, 40 and 60 minutes at all dilutions 1:100, 1:200, 1:400, 1:800
Procedure: as §1

melting point: 175 to 177 °C
SMILES: CCOCCOc1nc(-c2ccc(O)cc2)cc(-c2ccc(C)cc2)c1C#N [2-(2-ethoxyethoxy)-6-(4-hydroxyphenyl)-4-(4-methylphenyl)nicotinonitrile]
inhibition activity (summary in words) [1]: highest inhibition activity
inhibition activity (summary in words) [2]: highest inhibition activity
inhibition activity (summary in words) [3]: highest inhibition activity
inhibition activity (summary in words) [4]: highest inhibition activity
